Literature values, collected in US20180256462A1, “ALCOHOL-BASED SKIN SANITIZER HAVING MICROBICIDAL PROPERTIES” (DEB IP LIMITED, priority 2015, published 2018).
Like-named read-outs stand apart in the source and are kept apart here.

Legend:
[1] = tested on: Microsporum gypseum; settings: 10% in Vaseline petroleum jelly, topical daily for 3 weeks; for skin lesion scoring: first week of application; for histopathologic examination of skin tissues (hyperkeratosis, inflammatory cell infiltration): versus positive control
[2] = tested on: Microsporum gypseum
[3] = tested on: Staphylococcus aureus; settings: low concentrations (0.5 to 2 mM), disk diffusion
[4] = tested on: Escherichia coli
[5] = tested on: Lactobacillus fermentum; settings: live cells of Lactobacillus fermentum, flow cytometry

## C=CC(C)(O)CCC=C(C)CCC=C(C)C (mixture of isomers) [nerolidol, 3,7,11-trimethyl-1,6,10-dodecatrien-3-ol]
[1]
  hair culture test: improved the skin lesions infected by M. gypseum
  skin lesion scoring: clinically effective at improving the lesion during the first week of application
  histopathologic examination of skin tissues (hyperkeratosis, inflammatory cell infiltration): lower degree of hyperkeratosis and inflammatory cell infiltration than the positive control
[2]
  MIC: 0.5-2%
[3]
  susceptibility of Staphylococcus aureus to ciprofloxacin, clindamycin, erythromycin, gentamicin, tetracycline, and vancomycin: enhanced the susceptibility of Staphylococcus aureus
[4]
  sensitization of Escherichia coli to polymyxin B: sensitized Escherichia coli to polymyxin B
[5]
  intracellular accumulation of ethidium bromide: promoted the intracellular accumulation of the membrane-impermeant nucleic acid stain ethidium bromide

## CC(C)=CCC/C(C)=C/CC1CCCC1=O (stereo not drawn) [apritone]
[3]
  susceptibility of Staphylococcus aureus to ciprofloxacin, clindamycin, erythromycin, gentamicin, tetracycline, and vancomycin: enhanced the susceptibility of Staphylococcus aureus
[5]
  intracellular accumulation of ethidium bromide: promoted the intracellular accumulation of the membrane-impermeant nucleic acid stain ethidium bromide

## CC(C)=CCC[C@](C)(O)C1CC=C(C)CC1 (stereo partly drawn) [bisabolol]
[3]
  susceptibility of Staphylococcus aureus to ciprofloxacin, clindamycin, erythromycin, gentamicin, tetracycline, and vancomycin: enhanced the susceptibility of Staphylococcus aureus
[5]
  intracellular accumulation of ethidium bromide: promoted the intracellular accumulation of the membrane-impermeant nucleic acid stain ethidium bromide

## Clc1ccc(COC(Cn2ccnc2)c2ccc(Cl)cc2Cl)cc1 (stereo not drawn) [econazole]
[2]; positive control
  MIC: 4 to 16 µg/mL

## C=CCc1ccc(O)c(OC)c1 [eugenol]
[1]
  hair culture test: did not
  skin lesion scoring: clinically effective at improving the lesion during the first week of application
  histopathologic examination of skin tissues (hyperkeratosis, inflammatory cell infiltration): lower degree of hyperkeratosis and inflammatory cell infiltration than the positive control
[2]
  MIC: 0.01-0.03%

## CC(C)=CCCC(C)=CCCC(C)=CCO [farnesol]
[4]
  sensitization of Escherichia coli to polymyxin B: sensitized Escherichia coli to polymyxin B
[5]
  intracellular accumulation of ethidium bromide: promoted the intracellular accumulation of the membrane-impermeant nucleic acid stain ethidium bromide
